Source: US20230125667A1, “NOVEL TDZD ANALOGS AS AGENTS THAT DELAY, PREVENT, OR REVERSE AGE-ASSOCIATED DISEASES AND AS ANTI-CANCER AND ANTILEUKEMIC AGENTS” (United States Government as represented by the Department …, priority 2020, published 2023)
Read-outs that look alike come from different tables or passages of the source.

How the values were obtained:
[1] = tested on: BT-549; assay: NCI-60 growth inhibition: BT-549 (Breast Cancer); assay type: cell-based, human
[2] = tested on: SF-539; assay: NCI-60 growth inhibition: SF-539 (CNS Cancer); assay type: cell-based, human
[3] = tested on: OVCAR-8; assay: NCI-60 growth inhibition: OVCAR-8 (Ovarian Cancer); assay type: cell-based, human
[4] = tested on: COLO 205; assay: NCI-60 growth inhibition: COLO 205 (Colon Cancer); assay type: cell-based, human
[5] = tested on: SN12C; assay: NCI-60 growth inhibition: SN12C (Renal Cancer); assay type: cell-based, human
[6] = tested on: MDA-MB-435; assay: NCI-60 growth inhibition: MDA-MB-435 (Melanoma); assay type: cell-based, human
[7] = tested on: U251; assay: NCI-60 growth inhibition: U251 (CNS Cancer); assay type: cell-based, human
[8] = tested on: DU-145; assay: NCI-60 growth inhibition: DU-145 (Prostate Cancer); assay type: cell-based, human
[9] = tested on: 786-0; assay: NCI-60 growth inhibition: 786-0 (Renal Cancer); assay type: cell-based, human
[10] = tested on: IGROV1; assay: NCI-60 growth inhibition: IGROV1 (Ovarian Cancer); assay type: cell-based, human
[11] = tested on: K-562; assay: NCI-60 growth inhibition: K-562 (Leukemia); assay type: cell-based, human
[12] = tested on: MDA-MB-231/ATCC; assay: NCI-60 growth inhibition: MDA-MB-231/ATCC (Breast Cancer); assay type: cell-based, human
[13] = tested on: UO-31; assay: NCI-60 growth inhibition: UO-31 (Renal Cancer); assay type: cell-based, human
[14] = tested on: HCT-15; assay: NCI-60 growth inhibition: HCT-15 (Colon Cancer); assay type: cell-based, human
[15] = tested on: RXF 393; assay: NCI-60 growth inhibition: RXF 393 (Renal Cancer); assay type: cell-based, human
[16] = tested on: SF-268; assay: NCI-60 growth inhibition: SF-268 (CNS Cancer); assay type: cell-based, human
[17] = tested on: SNB-19; assay: NCI-60 growth inhibition: SNB-19 (CNS Cancer); assay type: cell-based, human
[18] = tested on: ACHN; assay: NCI-60 growth inhibition: ACHN (Renal Cancer); assay type: cell-based, human
[19] = tested on: SK-MEL-5; assay: NCI-60 growth inhibition: SK-MEL-5 (Melanoma); assay type: cell-based, human
[20] = tested on: OVCAR-4; assay: NCI-60 growth inhibition: OVCAR-4 (Ovarian Cancer); assay type: cell-based, human
[21] = tested on: NCI-H460; assay: NCI-60 growth inhibition: NCI-H460 (Non-Small-Cell Lung Cancer); assay type: cell-based, human
[22] = tested on: HCT-116; assay: NCI-60 growth inhibition: HCT-116 (Colon Cancer)
[23] = tested on: LOX IMVI; assay: NCI-60 growth inhibition: LOX IMVI (Melanoma); assay type: cell-based, human
[24] = tested on: HT29; assay: NCI-60 growth inhibition: HT29 (Colon Cancer); assay type: cell-based, human
[25] = tested on: MDA-MB-468; assay: NCI-60 growth inhibition: MDA-MB-468 (Breast Cancer); assay type: cell-based, human; conditions: MDA-MB-468 (Breast Cancer), read-out: GI50
[26] = tested on: UACC-257; assay: NCI-60 growth inhibition: UACC-257 (Melanoma); assay type: cell-based, human
[27] = tested on: CCRF-CEM; assay: NCI-60 growth inhibition: CCRF-CEM (Leukemia); assay type: cell-based, human
[28] = tested on: UACC-62; assay: NCI-60 growth inhibition: UACC-62 (Melanoma); assay type: cell-based, human
[29] = tested on: OVCAR-5; assay: NCI-60 growth inhibition: OVCAR-5 (Ovarian Cancer); assay type: cell-based, human
[30] = tested on: MALME-3M; assay: NCI-60 growth inhibition: MALME-3M (Melanoma); assay type: cell-based, human
[31] = tested on: SW-620; assay: NCI-60 growth inhibition: SW-620 (Colon Cancer); assay type: cell-based, human
[32] = tested on: A498; assay: NCI-60 growth inhibition: A498 (Renal Cancer); assay type: cell-based, human
[33] = tested on: NCI-H23; assay: NCI-60 growth inhibition: NCI-H23 (Non-Small-Cell Lung Cancer); assay type: cell-based, human
[34] = tested on: MV4-11 cell line (myelomonocytic leukemia); conditions: MV4-11 cells; for LD50, 7AAD (μM) 24 h / LD50, Alamar blue (μM) 24 h / LD50, YOPRO (μM) 24 h: MMB-TDZD analogs (Table 2)
[35] = tested on: human leukemia cell lines; assay: NCI-60 growth inhibition, leukemia cell lines; conditions: for potency against leukemia cell lines (GI50 <1.0): NCI panel
[36] = tested on: PC-3; assay: NCI-60 growth inhibition: PC-3 (Prostate Cancer); assay type: cell-based, human
[37] = tested on: HS 578T; assay: NCI-60 growth inhibition: HS 578T (Breast Cancer); assay type: cell-based, human
[38] = tested on: HOP-92; assay: NCI-60 growth inhibition: HOP-92 (Non-Small-Cell Lung Cancer); assay type: cell-based, human
[39] = tested on: OVCAR-3; assay: NCI-60 growth inhibition: OVCAR-3 (Ovarian Cancer); assay type: cell-based, human
[40] = tested on: SNB-75; assay: NCI-60 growth inhibition: SNB-75 (CNS Cancer); assay type: cell-based, human
[41] = tested on: T-47D; assay: NCI-60 growth inhibition: T-47D (Breast Cancer); assay type: cell-based, human
[42] = tested on: SK-MEL-2; assay: NCI-60 growth inhibition: SK-MEL-2 (Melanoma); assay type: cell-based, human
[43] = tested on: MOLT-4; assay: NCI-60 growth inhibition: MOLT-4 (Leukemia); assay type: cell-based, human
[44] = tested on: MCF7; assay: NCI-60 growth inhibition: MCF7 (Breast Cancer); assay type: cell-based, human
[45] = tested on: TK-10; assay: NCI-60 growth inhibition: TK-10 (Renal Cancer); assay type: cell-based, human
[46] = tested on: HL-60(TB); assay: NCI-60 growth inhibition: HL-60(TB) (Leukemia); assay type: cell-based, human
[47] = tested on: CAKI-1; assay: NCI-60 growth inhibition: CAKI-1 (Renal Cancer); assay type: cell-based, human
[48] = tested on: NCI-H522; assay: NCI-60 growth inhibition: NCI-H522 (Non-Small-Cell Lung Cancer)
[49] = tested on: EKVX; assay: NCI-60 growth inhibition: EKVX (Non-Small-Cell Lung Cancer); assay type: cell-based, human
[50] = tested on: RPMI-8226; assay: NCI-60 growth inhibition: RPMI-8226 (Leukemia); assay type: cell-based, human
[51] = tested on: M14; assay: NCI-60 growth inhibition: M14 (Melanoma); assay type: cell-based, human
[52] = tested on: SK-MEL-28; assay: NCI-60 growth inhibition: SK-MEL-28 (Melanoma); assay type: cell-based, human
[53] = tested on: SR; assay: NCI-60 growth inhibition: SR (Leukemia); assay type: cell-based, human; conditions: Homo sapiens

C=C1C(=O)O[C@H]2[C@H]1CC/C(COC(=O)NCc1ccc(Cn3c(=O)sn(CCCC#N)c3=O)cc1)=C\CC[C@@]1(C)O[C@@H]21 [BSK-226]
GI50 [1]: 1480 nM
GI50 [2]: 1730 nM
GI50 [3]: 2320 nM
GI50 [4]: 2040 nM
GI50 [5]: 1360 nM
GI50 [6]: 1800 nM
GI50 [7]: 5050 nM
GI50 [8]: 1640 nM
GI50 [9]: 1480 nM
GI50 [10]: 1780 nM
GI50 [11]: 720 nM
GI50 [12]: 1720 nM
GI50 [13]: 1400 nM
GI50 [14]: 1940 nM
GI50 [15]: 1350 nM
GI50 [16]: 2630 nM
GI50 [17]: 4840 nM
GI50 [18]: 1660 nM
GI50 [19]: 3720 nM
GI50 [20]: 1670 nM
GI50 [21]: 11300 nM
GI50 ([22]; HCT-116 (Colon Cancer)): 560 nM
GI50 ([22]; HCT-116 (colon cancer)): 560 nM
GI50 [23]: 1580 nM
GI50 [24]: 2460 nM
GI50 [25]: 1530 nM
GI50 [26]: 1610 nM
GI50 [27]: 570 nM
GI50 [28]: 1440 nM
GI50 [29]: 2640 nM
GI50 [30]: 1340 nM
GI50 [31]: 1230 nM
GI50 [32]: 2830 nM
GI50 [33]: 2330 nM
LD50, 7AAD (μM) 24 h [34]: 0.75 µM
LD50, Alamar blue (μM) 24 h [34]: 0.45 µM
LD50, YOPRO (μM) 24 h [34]: 0.37 µM
potency against leukemia cell lines (GI50 <1.0) [35]: comparably potent against 4 out of 5 leukemia cell lines
GI50 [36]: 2130 nM
GI50 [37]: 5640 nM
GI50 [38]: 1100 nM
GI50 [39]: 770 nM
GI50 [40]: 2030 nM
GI50 [41]: 1970 nM
GI50 [42]: 4830 nM
GI50 [43]: 1500 nM
GI50 [44]: 1710 nM
GI50 [45]: 1750 nM
GI50 ([46]; HL-60(TB) (Leukemia), read-out: GI50): 960 nM
GI50 [47]: 2050 nM
GI50 ([48]; NCI-H522 (Non-Small-Cell Lung Cancer)): 530 nM
GI50 ([48]; NCI-H522 (non-small-cell lung cancer)): 530 nM
GI50 [49]: 2820 nM
GI50 [50]: 760 nM
GI50 [51]: 1930 nM
GI50 [52]: 1690 nM

C=C1C(=O)O[C@H]2[C@H]1CC/C(COC(=O)NCc1ccc(Cn3c(=O)sn(CCCI)c3=O)cc1)=C\CC[C@@]1(C)O[C@@H]21 [BSK-259]
GI50 [53]: 280 nM
GI50 ([1]; Homo sapiens): 1380 nM
GI50 ([2]; Homo sapiens): 1710 nM
GI50 ([3]; Homo sapiens): 3040 nM
GI50 ([4]; Homo sapiens): 1950 nM
GI50 ([5]; Homo sapiens): 1570 nM
GI50 ([6]; Homo sapiens): 1680 nM
GI50 ([7]; Homo sapiens, U-251): 1750 nM
GI50 ([8]; Homo sapiens): 1730 nM
GI50 ([9]; Homo sapiens): 1680 nM
GI50 ([10]; Homo sapiens, IGROV-1): 1750 nM
GI50 ([11]; Homo sapiens, K562): 340 nM
GI50 ([12]; Homo sapiens): 1750 nM
GI50 ([13]; Homo sapiens): 1520 nM
GI50 ([14]; Homo sapiens): 1890 nM
GI50 ([15]; Homo sapiens): 1520 nM
GI50 ([16]; Homo sapiens): 2540 nM
GI50 ([17]; Homo sapiens): 3120 nM
GI50 ([18]; Homo sapiens): 1700 nM
GI50 ([19]; Homo sapiens): 1910 nM
GI50 ([20]; Homo sapiens): 1460 nM
GI50 ([21]; Homo sapiens): 3200 nM
GI50 ([22]; Homo sapiens, HCT-116): 1050 nM
GI50 ([23]; Homo sapiens): 1400 nM
GI50 ([24]; Homo sapiens, HT-29): 1740 nM
GI50 ([25]; Homo sapiens): 1540 nM
GI50 ([26]; Homo sapiens): 1790 nM
GI50 ([27]; Homo sapiens): 310 nM
GI50 ([28]; Homo sapiens): 1410 nM
GI50 ([29]; Homo sapiens): 1850 nM
GI50 ([30]; Homo sapiens): 1390 nM
GI50 ([31]; Homo sapiens): 1400 nM
GI50 ([32]; Homo sapiens): 4850 nM
GI50 ([33]; Homo sapiens): 2110 nM
fold more cytotoxic than PTL [34]: 273 fold
fold more cytotoxic than TDZD-8 [34]: 329 fold
LD50, 7AAD (μM) 24 h [34]: 0.01 µM
LD50, Alamar blue (μM) 24 h [34]: 0.30 µM
LD50, YOPRO (μM) 24 h [34]: 0.01 µM
LD50 ([34]; values in text): 10 nM
GI50 ([35]; Homo sapiens): 280 to 900 nM
potency against leukemia cell lines (GI50 <1.0) [35]: high potency against all 6 leukemia cell lines
GI50 ([36]; Homo sapiens): 1940 nM
GI50 ([37]; Homo sapiens): 3170 nM
GI50 ([38]; Homo sapiens): 1220 nM
GI50 ([39]; Homo sapiens): 1190 nM
GI50 ([41]; Homo sapiens, T47D): 1790 nM
GI50 ([42]; Homo sapiens): 2420 nM
GI50 ([43]; Homo sapiens): 290 nM
GI50 ([44]; Homo sapiens): 1410 nM
GI50 ([45]; Homo sapiens): 1710 nM
GI50 ([46]; Homo sapiens, HL-60): 300 nM
GI50 ([47]; Homo sapiens): 1700 nM
GI50 ([48]; Homo sapiens, NCI-H522): 1070 nM
GI50 ([49]; Homo sapiens): 2090 nM
GI50 ([50]; Homo sapiens): 900 nM
GI50 ([51]; Homo sapiens): 1740 nM
GI50 ([52]; Homo sapiens): 1920 nM
